Data taken from patent US20140243227A1, “CULTURE MEDIA FOR STEM CELLS” (Koninklijke Nederlandse Akademie van Wetenschappen, priority 2011, published 2014).
Read-outs that look alike come from different tables or passages of the source.

Key:
human colon crypts = test: Screening of reagents for optimization of human intestinal organoids culture (plating efficiency); type: cell-based
liver organoids = test: Liver organoid expansion with PGE2 or arachidonic acid; type: cell-based, human; settings: for Number and size of liver organoids versus basal medium alone: PGE2 50 nM or AA 10 ug/ml
[1] = system: colon and liver organoids; test: GSK3 inhibitor as Wnt replacement in organoid culture media; type: cell-based; settings: replacement for Wnt
human colon organoids = test: Long-term culture of human colon organoids (culture period, passages); type: cell-based; settings: nicotinamide 10 mM, WENR + gastrin
[2] = system: human intestinal organoids; test: Differentiation and proliferation of human intestinal organoids; type: cell-based; settings: human organoids after withdrawal of Wnt
[3] = Second screening (WENR + gastrin + Nicotinamide)

Row | Compound | Activity (plating efficiency compared with control after 4 days culture) (human colon crypts; [3]) | Activity (plating efficiency compared with control after 4 days culture) (human colon crypts; First screening (WENR)) | further results
1 | Nc1ncn([C@@H]2O[C@H](CO)[C@@H](O)[C@H]2O)c(=O)n1 [5 Azacytidin] | 1− (1− = 0-50%) |  | 
2 | CCCCC/C=C\C/C=C\C/C=C\C/C=C\CCCC(=O)O [AA, Arachidonic acid] |  |  | Number and size of liver organoids versus basal medium alone (liver organoids): greater number of larger organoids
3 | COc1cc2nc(N3CCCN(C)CC3)nc(NC3CCN(Cc4ccccc4)CC3)c2cc1OC [BIX01294] | 1− (1− = 0-50%) |  | 
4 | Cc1c[nH]c(-c2cnc(NCCNc3ccc(C#N)cn3)nc2-c2ccc(Cl)cc2Cl)n1 [CHIR99021] |  |  | Wnt agonist activity in the culture media [1]: effective Wnt agonist
5 | C[C@H](NC(=O)Cc1cc(F)cc(F)c1)C(=O)N[C@H](C(=O)OC(C)(C)C)c1ccccc1 [DAPT] |  |  | Maximal concentration efficiency (liver organoid cultures; titration, hepatocyte marker expression): 10 µM
6 | c1cc(-c2cnn3cc(-c4ccc(OCCN5CCCCC5)cc4)cnc23)ccn1 [Dorsomorphin] | 0 |  | 
7 | C[C@]12CCC(=O)C=C1CC[C@@H]1[C@@H]2[C@@H](O)C[C@@]2(C)[C@H]1CC[C@]2(O)C(=O)CO [Hydrocortison] |  | 0 | 
8 | O=C1O[C@H]([C@@H](O)CO)C(O)=C1O [L-Ascorbic acid] |  | 0 | 
9 | NC(=O)c1cccnc1 [Nicotinamide] |  | 3+ (3+ = >100% increase) | Prolongation of culture period (human colon organoids): essential for prolongation of culture period beyond the initial 7 days; Goblet and enteroendocrine cell differentiation [2]: strongly inhibited this differentiation
10 | COc1cccc(-c2cc(=O)c3ccccc3o2)c1N [PD98059] | 1− (1− = 0-50%) |  | 
11 | CCCCC[C@H](O)/C=C/[C@H]1[C@H](O)CC(=O)[C@@H]1C/C=C\CCCC(=O)O [PGE2, prostaglandin E2] |  | 1+ (1+ = <50% increase) | Culturing time without growth reduction (liver organoids; 5 fold expansion per week, 5 weeks without PGE2): at least 8 weeks; Number and size of liver organoids versus basal medium alone (liver organoids): greater number of larger organoids
12 | O=C(O)/C=C(/CCc1ccc(Cl)cc1)c1ccccc1 [PS48] | 0 |  | 
13 | Cc1ccc(C(=O)Cn2c3c(sc2=N)CCCC3)cc1 [Pifithrin-α] | 0 |  | 
14 | Cc1nc2sccn2c(=O)c1CCN1CCC(=C(c2ccccc2)c2ccc(F)cc2)CC1 [R 59022] |  |  | Result: CYP3AII (liver organoid cultures): +
15 | Oc1ccc(-c2nc(-c3ccc(F)cc3)c(-c3ccncc3)[nH]2)cc1 [SB-202190, 4-[4-(4-Fluorophenyl)-5-(4-pyridinyl)-1H-imidazol-2-yl]phenol] |  |  | Goblet and enteroendocrine cell differentiation [2]: strongly inhibited this differentiation
16 | Oc1c2ccccc2c2c3c(cccc13)N=N2 [SP600125] | 0 |  | 
17 | CC(/C=C/C(=O)NO)=C\[C@@H](C)C(=O)c1ccc(N(C)C)cc1 [TSA] |  |  | Result: CYP3AII (liver organoid cultures): −
18 | O.O.O.O=C(O)c1ncccc1O.O=C(O)c1ncccc1O.[O]=[V] [VO-OHpic trihydrate] | 3− (3− = >100% decrease) |  | 
19 | C[C@@H](N)[C@H]1CC[C@H](C(=O)Nc2ccncc2)CC1.Cl.Cl.O [Y27632, R-(+)-trans-4-(1-aminoethyl)-N-(4-Pyridyl)cyclohexanecarboxamide dihydrochloride monohydrate] |  |  | Activity (plating efficiency compared with control after 4 days culture) (human colon crypts): 1+ (key: 0 = no change; 1+ = <50% increase; 2+ = 50-100% increase; 3+ = >100% increase; 1− = 0-50%; 2− = 50-100% decrease; 3− = >100% decrease); Organoid morphology note in Activity column (human colon crypts): cystic
20 | Cholera Toxin |  |  | Activity (plating efficiency compared with control after 4 days culture) (human colon crypts): 1+ (key: 0 = no change; 1+ = <50% increase; 2+ = 50-100% increase; 3+ = >100% increase; 1− = 0-50%; 2− = 50-100% decrease; 3− = >100% decrease)
21 | Exendin4: GLP1 analog; a 39 amino acid peptide |  | 0 | 
22 | FGF2: growth factor (Peprotech) |  | 0 | 
23 | LIF: growth factor (Millipore) |  | 0 | 
